The text below walks through data of PubChem BioAssay (NCI).

Among the test systems are HOP-62 NSCLC; SK-MEL-2 melanoma; OVCAR-3 ovarian; MALME-3M melanoma; NCI-H522 lung; RXF 393 renal; ACHN renal; CAKI-1 renal; A498 renal; HCT-116 colon.
What all share (assay): DTP human tumour cell line panel, 48 h

The structures appear in SMILES notation.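 Test compounds were applied to cells in 96-well plates for 48 hours at 5 doses. Here, GI50 denotes the concentration required for 50% inhibition of growth. TGI marks complete inhibition of growth.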

Take `O=C(CSc1ncn[nH]1)C[P+](c1ccccc1)(c1ccccc1)c1ccccc1`: the concentration for total growth inhibition (TGI) was greater than 100 µM with HOP-62 NSCLC; greater than 100 µM in the test on SK-MEL-2 melanoma; greater than 100 µM in the test with OVCAR-3 ovarian; greater than 100 µM in the test on MALME-3M melanoma; 43.2 µM with NCI-H522 lung; greater than 100 µM with RXF 393 renal. Further, the TGI with ACHN renal and in the test with CAKI-1 renal was greater than 100 µM in each case.
As to `COC(=O)CCC1CCc2c(OC)ccc(OC)c2C1=O` (configuration not stated), the TGI in the test with HOP-62 NSCLC, in the test on SK-MEL-2 melanoma, in the test with OVCAR-3 ovarian, with MALME-3M melanoma, with NCI-H522 lung and in the test with RXF 393 renal was greater than 100 µM each time. Besides, the TGI in the test with ACHN renal was greater than 100 µM.
As for `COc1cc(OC)c2nccc(NCCCN(C)C)c2c1[N+](=O)[O-]`, the TGI in the test with HOP-62 NSCLC, in the test with SK-MEL-2 melanoma, in the test with OVCAR-3 ovarian, with MALME-3M melanoma, with NCI-H522 lung and in the test on A498 renal was greater than 100 µM each time. The total growth inhibition concentration (TGI) in the test with HCT-116 colon, in the test with ACHN renal and in the test on CAKI-1 renal was greater than 100 µM in each case.
In the case of `CCOc1ccc2c(c1)[n+]([O-])c(-c1ccc(Br)cc1)c(N)[n+]2[O-]`, the concentration for total growth inhibition (TGI) in the test on HOP-62 NSCLC was greater than 100 µM; in the test with SK-MEL-2 melanoma it was greater than 100 µM; with OVCAR-3 ovarian it was greater than 100 µM; in the test with MALME-3M melanoma, greater than 100 µM; in the test on NCI-H522 lung, 33.7 µM; in the test with A498 renal, greater than 100 µM. In addition, the TGI is greater than 100 µM in the test on ACHN renal and 64.1 µM in the test on CAKI-1 renal.
Regarding `COC(=O)C1=C(c2ccc(OC)c(OC)c2)OC(c2cc(OC)c(OC)c(OC)c2)C1` (configuration not stated), the TGI with HOP-62 NSCLC is 47.4 µM; in the test on SK-MEL-2 melanoma it was greater than 100 µM; in the test on OVCAR-3 ovarian, greater than 100 µM; in the test on MALME-3M melanoma, greater than 100 µM; in the test on RXF 393 renal, 66.9 µM; with A498 renal, 63 µM. Also, the total growth inhibition concentration (TGI) in the test with ACHN renal and with CAKI-1 renal was greater than 100 µM each time.
`Cc1cn(C2C=CC(CO)O2)c(=O)[nH]c1=O` (configuration not stated): the total growth inhibition concentration (TGI) in the test with HOP-62 NSCLC, in the test on SK-MEL-2 melanoma, in the test with OVCAR-3 ovarian, in the test with MALME-3M melanoma, in the test on NCI-H522 lung and in the test with HCT-116 colon was greater than 1000 µM in each case. Moreover, the total growth inhibition concentration (TGI) in the test on ACHN renal and in the test with CAKI-1 renal was greater than 1000 µM throughout.
For the compound `O=C(/C=C/c1ccco1)c1ccc(NCc2nc3ccccc3[nH]2)cc1`, the concentration for total growth inhibition (TGI) is 35.6 µM in the test on HOP-62 NSCLC; 34.9 µM in the test on SK-MEL-2 melanoma; 31.1 µM in the test with OVCAR-3 ovarian; 33.2 µM in the test with MALME-3M melanoma; 21.4 µM in the test with NCI-H522 lung; 27.5 µM in the test with A498 renal. Further, the total growth inhibition concentration (TGI) with ACHN renal was 38.4 µM; with CAKI-1 renal, 49.9 µM.
For `S=c1nc(COc2ccc(Cl)cc2Cl)[nH][nH]1`, the TGI in the test with SK-MEL-2 melanoma, in the test on OVCAR-3 ovarian, in the test with MALME-3M melanoma, in the test with RXF 393 renal, with A498 renal and in the test with HCT-116 colon was greater than 100 µM throughout. Further, the concentration for total growth inhibition (TGI) in the test with ACHN renal and in the test on CAKI-1 renal was greater than 100 µM throughout.
Regarding `COC(=O)C(=CNC(N)=O)C(=O)OC`, the TGI in the test on HOP-62 NSCLC, in the test with SK-MEL-2 melanoma, with OVCAR-3 ovarian, in the test on NCI-H522 lung, with HCT-116 colon and in the test with ACHN renal was greater than 100 µM throughout. In the test with CAKI-1 renal, this compound displayed a total growth inhibition concentration (TGI) greater than 100 µM.
Consider `CC(=O)N1N=C(c2ccc(Nc3ccnc4cc(Cl)ccc34)cc2)CC1c1ccc(Cl)cc1` (configuration not stated), for which the GI50 was greater than 100 µM with HOP-62 NSCLC; greater than 100 µM in the test on SK-MEL-2 melanoma; 7.19 µM with OVCAR-3 ovarian; 5.05 µM in the test with NCI-H522 lung; 5.07 µM with RXF 393 renal; greater than 100 µM with A498 renal. The GI50 in the test on HCT-116 colon is 38.8 µM; in the test on ACHN renal it was 3.96 µM; in the test with CAKI-1 renal it was greater than 100 µM. Besides, the TGI in the test on HOP-62 NSCLC, in the test on SK-MEL-2 melanoma, in the test on OVCAR-3 ovarian, in the test with NCI-H522 lung, with RXF 393 renal and with A498 renal was greater than 100 µM in each case. In addition, the TGI in the test with HCT-116 colon, in the test on ACHN renal and in the test on CAKI-1 renal was greater than 100 µM throughout.
Consider `CCOC(=O)c1c(C)n(Cc2ccccc2)c2c1cc(O)c1[nH]c(Cc3ccccc3)nc12`, for which the GI50 in the test with HOP-62 NSCLC was 17.4 µM; in the test with SK-MEL-2 melanoma, 26.7 µM; in the test with OVCAR-3 ovarian, 11.4 µM; with MALME-3M melanoma it was 9.93 µM; in the test on RXF 393 renal it was 3.4 µM; in the test on A498 renal, 28.5 µM. For the same compound, the GI50 is 5.91 µM in the test on HCT-116 colon, 23 µM in the test with ACHN renal and 7.77 µM with CAKI-1 renal. Also, the TGI with HOP-62 NSCLC was greater than 85.6 µM; in the test on SK-MEL-2 melanoma, greater than 100 µM; in the test on OVCAR-3 ovarian it was 44 µM; in the test on MALME-3M melanoma, 58 µM; in the test with RXF 393 renal it was 14.8 µM; in the test with A498 renal, greater than 86.1 µM. The TGI in the test on HCT-116 colon was greater than 43.5 µM; in the test with ACHN renal it was greater than 100 µM; with CAKI-1 renal it was 21.8 µM.
On to `Clc1ccc(-c2csc(Nc3cccc(-c4csc(-c5ccccc5)n4)c3)n2)cc1`, for which the GI50 in the test on HOP-62 NSCLC was 10.7 µM; in the test on SK-MEL-2 melanoma, 10.6 µM; in the test with OVCAR-3 ovarian, 11.4 µM; in the test with NCI-H522 lung, 10.2 µM; with RXF 393 renal it was 9.89 µM; with A498 renal, 15.9 µM. Moreover, the GI50 with HCT-116 colon is 8.97 µM; in the test with ACHN renal, 14.6 µM; with CAKI-1 renal, 9.77 µM. Moreover, the TGI in the test with HOP-62 NSCLC amounted to 22.8 µM; in the test with SK-MEL-2 melanoma it was 26.1 µM; with OVCAR-3 ovarian it was 32.4 µM; in the test with NCI-H522 lung, 23.5 µM; with RXF 393 renal, 21.9 µM; in the test with A498 renal, 28.3 µM. For the same compound, the TGI in the test on HCT-116 colon is 18.5 µM; with ACHN renal, 42.1 µM; in the test on CAKI-1 renal, 25.6 µM.
Take `Oc1ccc(O)c(-c2cc(-c3ccc(Cl)cc3)nn2-c2ccccc2)c1`: the GI50 with SK-MEL-2 melanoma was 23.4 µM; in the test with OVCAR-3 ovarian, 14.5 µM; with NCI-H522 lung it was 2.4 µM; with A498 renal, 0.755 µM; in the test with ACHN renal, 18.6 µM; with CAKI-1 renal, 18.8 µM. In addition, the TGI is greater than 100 µM in the test with SK-MEL-2 melanoma; 30.7 µM with OVCAR-3 ovarian; 5.44 µM with NCI-H522 lung; 13.8 µM in the test on A498 renal; 32.6 µM in the test with ACHN renal; 39.6 µM in the test with CAKI-1 renal.

As usually defined, the TGI is the concentration giving total growth inhibition. A higher TGI goes with less potent growth arrest. Broadly, the GI50 is the concentration giving 50% growth inhibition.
